Data from patent US12508302B2, “Pharmaceutical composition providing mucolytic effect” (FRIMLINE PRIVATE LIMITED, priority 2022, dated 2025).

Tested on: tracheobronchial secretion in rats
Assay: Mucolytic activity in rats: tracheobronchial secretion of fluorescein sodium (FINa)
Format: in vivo, rat (Swiss Albino Rats)
Details: for Fluorescein Sodium (FINa) Secretion: dosed 30 minutes before i.v. FINa 300 mg/kg, tracheobronchial lavage one hour after administration, doses as Table 1, mean±SEM; for Percentage (%) Enhancement of FINa secretion compared to Normal: versus normal group (G1)
Experimental: The effect of the compositions of the present invention was studied in animals. For this study, screening effect of synergistic combination of compositions/formulations comprising N-Acetyl-L-Cysteine, Lactoferrin and additional active ingredients for mucolytic activity in rat was performed. The following trials were carried out:
Eighty-Four (84) rats including male and female (Swiss Albino Rats) divided into 14 groups (6 per group) were maintained in animal house in a light/dark atmosphere based on a 12 hour cycle having temperature and relative humidity in the range of 19 to 25±2° C. and 30-70%, respectively. To maintain the appropriate conditions, temperature and relative humidity were recorded three times daily. All animals were acclimatized for a minimum period of five days. Animals were maintained in the test setup for minimum 30 minutes once during the acclimatization period to reduce the stress. Animals were weighed on the day of receipt and observed daily for abnormalities if any. Detailed records of acclimatization were also maintained. Rats were housed 3 per cage in clean, sterilized Polypropylene cages. During complete experiments, animals were supplied with the standard certified rat pellet feed and drinking water treated by reverse osmosis ad libitum.
In order to evaluate the mucolytic activity in rats, eighty-four (84) rats were screened and divided into Fourteen (14) groups. For a comparative analysis, groups were divided and treated as below:
Tracheobronchial secretion in rats, expressed by the amount of fluorescein sodium (FINa) dye excreted into the respiratory tract, was measured by modification of methods published earlier.
Lactoferrin, Carotenoid, N-Acetyl-L-Cysteine or their combinations (G4-G14) were suspended in 1% Acacia. Acetylcholine (G2) and Bromhexine (G3) were dissolved in distilled water. The said active ingredients were administered orally (1 ml/100 g body weight) 30 minutes before intravenous injection of FINa (300 mg/kg, 0.1 ml/100 g body weight) in fasted rats.
One hour after administration, all rats were sacrificed with CO2 exposure; an incision was made, and the trachea was immediately exposed. An infant feeding tube was gently inserted into the trachea (about 30 mm deep). Five milliliters of 5% NaHCO3 solution (˜37° C.) was injected into the respiratory tract and immediately aspirated while gently massaging the thoracic area.
The tracheobronchial lavage fluid (4.9±0.1 ml) was centrifuged (3500 rpm for 10 minutes) and the supernatant was transferred to STP B & L tubes. The fluorescence intensity of the supernatant was measured with a Genesys 20 spectrophotometer set at a wavelength of 510 nm (emission).

CC(=O)OCC[N+](C)(C)C [Diseased Control, Acetylcholine]
Fluorescein Sodium (FINa) Secretion: 0.37 ± 0.12 μg/100 g/h
Percentage (%) Enhancement of FINa secretion compared to Normal (doses as Table 1): −74.13 ± 6.4 ^ %
Percentage (%) Enhancement of FINa secretion compared to Normal (doses as Table 1, listed as diseased group): −74.13%

CC(=O)N[C@@H](CS)C(=O)O [NAC, N-Acetyl-L-Cysteine]
Fluorescein Sodium (FINa) Secretion: 1.99 ± 0.08 μg/100 g/h
Percentage (%) Enhancement of FINa secretion compared to Normal (doses as Table 1): 39.16 ± 5.1%
Percentage (%) Enhancement of FINa secretion compared to Normal (doses as Table 1, listed as N-Acetyl-L-Cysteine): 39.16%

CN(Cc1cc(Br)cc(Br)c1N)C1CCCCC1 [Positive Control, Bromhexine]
Fluorescein Sodium (FINa) Secretion: 2.64 ± 0.18 μg/100 g/h
Percentage (%) Enhancement of FINa secretion compared to Normal (doses as Table 1): 84.62 ± 6.1%
Percentage (%) Enhancement of FINa secretion compared to Normal (doses as Table 1, listed as positive control): 84.62%
